Measurements published in patent publication US7786040B2, “4-cyclopropyl-1,2,3,-thiadiazole compound, agrohorticultural plant disease controlling agent and method of using the same” (Nihon Nohyaku Co., Ltd., priority 2005, dated 2010).

What was measured:
[1] = tested on: powdery mildew fungus (Blumeria graminis); assay: Test Example 1: controlling effect by seed dressing against wheat powdery mildew; assay type: in vivo; conditions: 0.15% active ingredient based on weight of dry seeds, inoculated 25 days after sowing, investigated 7 days after inoculation
From the text: (§1) Seeds of wheat (cultivar: chihoku komugi) and a wettable powder prepared according to Formulation Example were placed in a vinyl bag, followed by adding thereto a small volume of water, and they were mixed to conduct seed dressing. On the day after this treatment, the seeds sowed in a plastic pot of 10 cm diameter, and cultivated in a greenhouse. Twenty five days after sowing, the seedlings thus obtained were inoculated with powdery mildew fungus (Blumeria graminis) by sprinkling. Seven days after inoculation, the seedlings were investigated and infection index was estimated according to the criterion shown below, after which the control efficacy (%) was calculated. In this occasion, infection index on the untreated plot was 8.0. As comparative examples, the following compounds described in JP-A-2001-10909 were evaluated. • I: 3′-chloro-4,4′-dimethyl-1,2,3-thiadiazole-5-carboxanilide • II: benzyl 4-isopropyl-1,2,3-thiadiazole-5-carboxylate • III: methyl 4-cyclopropyl-1,2,3-thiadiazole-5-carboxylate • IV: 4-cyclopropyl-1,2,3-thiadiazole-5-carboxylic acid Infection Index • 0: No infection. • 0.5: Lesion area percentage: less than 10% • 1: Lesion area percentage; 10 to less than 20% • 2: Lesion area percentage; 20 to less than 30% • 3: Lesion area percentage; 30 to less than 40% • 4: Lesion area percentage; 40 to less than 50% • 5: Lesion area percentage; 50 to less than 60% • 6: Lesion area percentage; 60 to less than 70% • 7: Lesion area percentage; 70 to less than 80% • 8: Lesion area percentage; 80 to less than 90% • 9: Lesion area percentage; 90 to less than 100% • 10: Lesion area percentage; 100% Control efficacy (%)={1-(infection index on treated plot/infection index on untreated plot)}×100 Rank of Control Efficacy • A: Control efficacy 100-90% • B: Control efficacy 89-80% • C: Control efficacy 79-60% • D: Control efficacy 59-0%

[2] = tested on: wheat (cultivar: Chihoku Komugi); assay: Test Example 3: phytotoxicity for wheat by treatment of seeds (safety test on plant); assay type: in vivo; conditions: wheat seed dressing, 0.15% active ingredient based on weight of dry seeds; 7 and 14 days after sowing
Protocol: Seeds of wheat (cultivar: Chihoku Komugi) and a wettable powder prepared according to Formulation Example were placed in a vinyl bag, followed by adding thereto a small volume of water, and they were mixed to conduct seed dressing. On the day after this treatment, the seeds sowed in a plastic pot of 10 cm diameter, and cultivated in a greenhouse. Seven days and fourteen days after sowing, phytotoxicity for germination of the seeds and growth at the early stage were evaluated.

[3] = tested on: powdery mildew fungus (Blumeria graminis); assay: Test Example 2: controlling effect by seed dressing against wheat powdery mildew, long-lasting effect; assay type: in vivo; conditions: 0.15% active ingredient based on weight of dry seeds, inoculated 50 days after sowing, investigated 7 days after inoculation
From the text: as §1
Seeds of wheat (cultivar: Chihoku Komugi) and a wettable powder prepared according to Formulation Example were placed in a vinyl bag, followed by adding thereto a small volume of water, and they were mixed to conduct seed dressing. On the day after this treatment, the seeds sowed in a plastic pot of 10 cm diameter, and cultivated in a greenhouse. Fifty days after sowing, the seedlings thus obtained were inoculated with powdery mildew fungus (Blumeria graminis) by sprinkling. Seven days after inoculation, the seedlings were investigated and infection index was estimated according to the criterion shown below, after which the control efficacy (%) was calculated. In this occasion, infection index on the untreated plot was 8.0. As comparative examples, the above-described compounds I, II, III and IV were evaluated.

SMILES	Rank of control efficacy [1]	phytotoxicity for germination of the seeds and growth at the early stage [2]	melting point	Rank of control efficacy [3]
CCCCCCCCOC(=O)c1snnc1C1CC1 [1-8]	B or more	absolutely no phytotoxicity	–	–
O=C(OCc1cccc(Cl)c1)c1snnc1C1CC1 [1-11]	B or more	absolutely no phytotoxicity	–	–
O=C(OCc1ccc(Cl)cc1)c1snnc1C1CC1 [1-12]	B or more	absolutely no phytotoxicity	–	–
COC(=O)c1ccc(COC(=O)c2snnc2C2CC2)cc1 [1-24]	B or more	absolutely no phytotoxicity	–	–
O=C(OCc1cc(Cl)cc(Cl)c1)c1snnc1C1CC1 [1-30]	B or more	absolutely no phytotoxicity	–	–
CC(OC(=O)c1snnc1C1CC1)c1ccc(Cl)cc1 (stereo not shown) [1-44]	B or more	absolutely no phytotoxicity	–	–
O=C(NCc1ccccc1)c1snnc1C1CC1 [1-53]	B or more	absolutely no phytotoxicity	–	–
CC(C)(C)c1ccc(CNC(=O)c2snnc2C2CC2)cc1 [1-63]	B or more	absolutely no phytotoxicity	–	–
Cc1ccc(NC(=O)c2snnc2C2CC2)cc1Cl [1-95, 3′-chloro-4-cyclopropyl-4′-methyl-1,2,3-thiadiazole-5-carboxanilide]	B or more	absolutely no phytotoxicity	150 to 153 °C	–
COc1ccc(NC(=O)c2snnc2C2CC2)c(OC)c1 [1-96]	B or more	absolutely no phytotoxicity	–	–
O=C(O)c1ccccc1NC(=O)c1snnc1C1CC1 [1-98, 2-(4-cyclopropyl-1,2,3-thiadiazol-5-ylcarbonylamino)benzoic acid]	B or more	absolutely no phytotoxicity	–	–
N#Cc1ccccc1NC(=O)c1snnc1C1CC1 [1-100, 2′-cyano-4-cyclopropyl-1,2,3-thiadiazole-5-carboxanilide]	–	–	124 °C	–
CC(C)Cc1csc(NC(=O)c2snnc2C2CC2)n1 [1-110]	B or more	absolutely no phytotoxicity	–	–
O=C(NS(=O)(=O)c1ccccc1)c1snnc1C1CC1 [1-121]	B or more	absolutely no phytotoxicity	–	–
COc1ccc(CNC(=O)c2snnc2C2CC2)cc1OC [1-166]	B or more	absolutely no phytotoxicity	–	–
O=C(O)c1snnc1C1CC1 [Comparative compound IV, 4-cyclopropyl-1,2,3-thiadiazole-5-carboxylic acid]	–	delay germination and suppressed growth	158 to 159 °C	B (Control efficacy 89-80%)
COC(=O)c1snnc1C1CC1 [III, methyl 4-cyclopropyl-1,2,3-thiadiazole-5-carboxylate]	–	–	47 °C	–
